Patent US20250025447A1, “TOLL-LIKE RECEPTOR AGONISTS AND ANTAGONISTS AND USES THEREOF” (Regents of the University of Minnesota, priority 2021, published 2025)
Entries after “also recorded” stand apart in the source; their conditions may differ. Read-outs that look alike come from different tables or passages of the source.

Tests used:
human TLR-8 [1] = molecular target: T1, human TLR-8 (Homo sapiens, UniProt Q9NR97); assay: TLR-8/NF-κB/SEAP reporter assay in HEK293 cells, agonist mode; settings: HEK-SEAP reporter cells
T1 sequence (Q9NR97 27-1041): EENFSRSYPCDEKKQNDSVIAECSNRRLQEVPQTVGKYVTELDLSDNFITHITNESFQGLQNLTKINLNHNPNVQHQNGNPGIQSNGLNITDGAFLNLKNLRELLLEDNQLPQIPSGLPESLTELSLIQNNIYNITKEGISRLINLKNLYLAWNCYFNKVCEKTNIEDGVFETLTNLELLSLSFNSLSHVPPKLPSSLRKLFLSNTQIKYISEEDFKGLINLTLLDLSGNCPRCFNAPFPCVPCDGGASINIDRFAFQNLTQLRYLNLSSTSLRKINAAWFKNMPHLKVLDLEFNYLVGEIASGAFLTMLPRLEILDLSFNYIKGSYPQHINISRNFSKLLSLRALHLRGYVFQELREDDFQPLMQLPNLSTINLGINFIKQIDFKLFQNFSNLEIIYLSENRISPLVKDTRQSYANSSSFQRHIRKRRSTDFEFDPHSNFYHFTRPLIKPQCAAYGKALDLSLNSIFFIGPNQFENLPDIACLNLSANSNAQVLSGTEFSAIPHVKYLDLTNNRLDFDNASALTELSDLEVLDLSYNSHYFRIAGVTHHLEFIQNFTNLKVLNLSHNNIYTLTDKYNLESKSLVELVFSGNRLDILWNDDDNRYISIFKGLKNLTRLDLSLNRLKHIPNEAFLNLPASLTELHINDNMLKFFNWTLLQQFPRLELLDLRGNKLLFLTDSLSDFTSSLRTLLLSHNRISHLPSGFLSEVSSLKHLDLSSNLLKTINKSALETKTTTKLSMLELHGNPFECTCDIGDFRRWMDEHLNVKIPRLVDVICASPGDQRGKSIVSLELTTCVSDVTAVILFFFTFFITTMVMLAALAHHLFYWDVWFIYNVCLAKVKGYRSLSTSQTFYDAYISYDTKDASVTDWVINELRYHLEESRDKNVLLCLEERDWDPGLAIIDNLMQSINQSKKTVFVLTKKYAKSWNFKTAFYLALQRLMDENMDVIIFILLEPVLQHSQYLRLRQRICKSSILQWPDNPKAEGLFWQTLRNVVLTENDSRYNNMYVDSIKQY

human TLR-7 [2] = molecular target: T2, human TLR-7 (Homo sapiens, UniProt Q9NYK1); assay: TLR-7/NF-κB/SEAP reporter assay in HEK293 cells, agonist mode
T2 sequence (Q9NYK1 27-1049): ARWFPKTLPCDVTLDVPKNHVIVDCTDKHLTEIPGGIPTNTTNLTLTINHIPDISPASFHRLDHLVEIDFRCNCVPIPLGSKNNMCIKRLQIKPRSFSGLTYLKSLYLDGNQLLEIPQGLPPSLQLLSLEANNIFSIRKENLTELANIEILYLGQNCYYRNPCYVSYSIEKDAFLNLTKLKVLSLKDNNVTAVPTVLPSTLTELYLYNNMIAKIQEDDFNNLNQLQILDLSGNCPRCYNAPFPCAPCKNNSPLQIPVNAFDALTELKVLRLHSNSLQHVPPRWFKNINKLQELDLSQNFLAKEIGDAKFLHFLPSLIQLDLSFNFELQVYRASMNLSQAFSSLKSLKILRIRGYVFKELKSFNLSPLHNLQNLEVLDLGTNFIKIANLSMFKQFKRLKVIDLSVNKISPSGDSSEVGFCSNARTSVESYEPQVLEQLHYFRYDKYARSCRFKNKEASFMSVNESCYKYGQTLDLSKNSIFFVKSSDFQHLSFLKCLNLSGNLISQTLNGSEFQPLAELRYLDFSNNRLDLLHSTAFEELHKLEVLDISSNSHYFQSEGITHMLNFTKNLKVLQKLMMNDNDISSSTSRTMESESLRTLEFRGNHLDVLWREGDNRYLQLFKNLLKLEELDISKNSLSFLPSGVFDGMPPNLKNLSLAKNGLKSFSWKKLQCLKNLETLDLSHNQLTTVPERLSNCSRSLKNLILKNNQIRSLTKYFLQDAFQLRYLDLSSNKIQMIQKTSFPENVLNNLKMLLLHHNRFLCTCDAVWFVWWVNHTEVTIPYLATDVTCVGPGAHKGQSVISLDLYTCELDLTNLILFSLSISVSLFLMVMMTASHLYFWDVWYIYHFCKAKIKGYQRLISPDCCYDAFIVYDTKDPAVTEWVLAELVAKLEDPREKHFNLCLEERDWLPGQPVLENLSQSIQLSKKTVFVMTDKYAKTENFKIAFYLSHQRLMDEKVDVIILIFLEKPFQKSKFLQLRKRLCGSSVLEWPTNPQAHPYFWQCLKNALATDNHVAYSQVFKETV

human TLR-7 [3] = molecular target: T2, human TLR-7; assay: TLR-7 HEK-SEAP reporter competition (antagonist) assay against agonist compound 5; settings: for TLR-7 antagonist activity against compound 5 (in words): agonist compound 5 at different concentrations, FIGS. 1A-D; for IC50: read-out: TLR-7 reporter cell activity, IC50 of antagonists, relative IC50 at fixed concentration of compound 5, 3 μM
[4] = system: TNFα, IFNγ and IL-1β production in hPBMCs; assay: Competition assay of agonist-induced cytokine induction in hPBMCs (ELISA); format: cell-based, human
Procedure: Preparation and stimulation of PBMC. Human PBMC can be isolated from heparinized blood by standard density-gradient centrifugation over Ficoll-Paque Plus (Pharmacia, Uppsala, Sweden). Briefly, peripheral blood can be drawn by venipuncture into green top heparin tubes. The blood can be diluted 1:1 with PBS, and then layered upon Ficoll-Paque Plus in 50 ml centrifuge tubes. The tubes can be spun at 2000 rpm for 20 min, after which the buffy coats can be collected and washed twice in PBS. The isolated PBMC can be counted and added to the wells of a 24-well plate (5×10^5 cells/1 ml/well) in RPMI 1640 supplemented with 10% FBS, penicillin, streptomycin, sodium pyruvate, nonessential amino acids, and HEPES. TLR agonist 5 and TLR antagonist 3 can be prepared in DMSO and added to the wells (in triplicate) to reach the desired final concentrations. Some wells may only contain DMSO. After 24 h, culture supernatants can be collected, aliquoted, and frozen at −80° C. until analysis.
Quantitation of IL-1p, IFNγ, and TNFα. The amount of cytokines present in the supernatants after stimulation can be determined via Enzyme-Linked Immunosorbent Assay (ELISA) using a BioLegend ELISA MAX Deluxe Set for each cytokine tested. The assays can be conducted following the protocols provided by the assay set. Cell culture supernatants from hPBMCs can be used directly without dilution for the determination of IFNγ and TNFα but can be diluted accordingly for the IL-1β so the observed cytokine level could fall into the linear range of the assay.
These cytokines can be of particular interest due to the role they play in the driving Th1 differentiation of immune cells and development of cellular immunity.

human TLR-8 [5] = molecular target: T1, human TLR-8; assay: TLR-8 HEK-SEAP reporter competition (antagonist) assay against agonist compound 5; settings: agonist compound 5 at different concentrations, FIGS. 1A-D

In the case of `COC(=O)c1ccc2c(c1)nc(N)c1nc(CC3CC3)n(CC(C)O)c12` (stereo not drawn) [Compound 2, methyl 4-amino-2-(cyclopropylmethyl)-1-(2-hydroxypropyl)-1H-imidazo[4,5-c]quinoline-7-carboxylate], the “TLR-8 agonist activity (in words)” value (human TLR-8 [1]) is reported as “showed agonist activity”, the EC50 (human TLR-8 [1]; read-out: TLR-8 reporter cell activity, EC50, agonist) is reported as 18.8 ± 3.4 µM and the EC50 (human TLR-7 [2]) is reported as 13.4 ± 1.5 µM. For the same molecule, the “TLR-7 agonist activity (in words)” value (human TLR-7 [2]; HEK-SEAP reporter cells) was “showed agonist activity”.
For `COC(=O)c1ccc2c(c1)nc(N)c1nc(CC(C)C)n(Cc3ccc(CN)cc3)c12` [Compound 3, methyl 4-amino-1-(4-(aminomethyl)benzyl)-2-isobutyl-1H-imidazo[4,5-c]quinoline-7-carboxylate], the “TLR-7 antagonist activity against compound 5 (in words)” value (human TLR-7 [3]) was “concentration-dependent shifts; also recorded: low μM antagonists”, the IC50 (human TLR-7 [3]) was 3.91 ± 0.15 µM and the “inhibition of TNFα production” value ([4]; agonist 5 induced, FIG. 4A) was “concentration-dependent reduction; also recorded: potent inhibitor”. The “inhibition of IFNγ production” value ([4]; agonist 5 induced, FIG. 4B) was “concentration-dependent reduction; also recorded: potent inhibitor”, the “inhibition of IL-1β production” value ([4]; agonist 5 induced, FIG. 4C) was “concentration-dependent reduction; also recorded: potent inhibitor” and the “stimulatory activity in hPBMCs” value ([4]; compound itself) was “devoid of stimulatory activity”.
`COC(=O)c1ccc2c(c1)nc(N)c1nc(CC(C)C)n(CC(C)O)c12` (stereo not drawn) [Compound 1, methyl 4-amino-1-(2-hydroxypropyl)-2-isobutyl-1H-imidazo[4,5-c]quinoline-7-carboxylate] was tested, and the “TLR-8 antagonist activity against compound 5 (in words)” value (human TLR-8 [5]) was “reduction of TLR-8 activity”, the “TLR-7 agonist activity (in words)” value (human TLR-7 [2]; HEK-SEAP reporter cells) was “showed agonist activity” and the EC50 (human TLR-7 [2]; read-out: TLR-7 reporter cell activity, EC50, HEK-SEAP reporter cells, agonist) was 29.4 ± 2.2 µM.
`COC(=O)c1ccc2c(c1)nc(N)c1nc(CC3CC3)n(Cc3ccc(CN)cc3)c12` [Compound 4, methyl 4-amino-1-(4-(aminomethyl)benzyl)-2-(cyclopropylmethyl)-1H-imidazo[4,5-c]quinoline-7-carboxylate] was tested, and the “TLR-7 antagonist activity against compound 5 (in words)” value (human TLR-7 [3]) was “concentration-dependent shifts; also recorded: low μM antagonists” and the IC50 (human TLR-7 [3]) was 4.1 ± 0.2 µM.
